Reference: US20230085307A1, “PYRIDAZINONE COMPOUND AND HERBICIDE” (NISSAN CHEMICAL CORPORATION, priority 2019, published 2023)

What was measured:
barnyard grass [1] = experiment: Test Example 4: herbicidal effect by soil treatment (Table 19, symbol H); type: in vivo, barnyard grass (Echinochloa crus-galli); conditions: amount of applied herbicide 320 g/ha
Procedure, shortened: (§1)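 Step 1: sow seeds in sterilized diluvial soil, cover ~1.5 cm. Step 2: spray diluted emulsion onto soil surface at predetermined rate. Step 3: greenhouse, 25–30° C, three weeks. Step 4: grade effect on each plant by earlier criteria.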

rice flat sedge = experiment: Test Example 3: herbicidal effect by foliage application, Wagner pot (Table 18, symbol E); type: in vivo, rice flat sedge (Cyperus iria); conditions: amount of applied herbicide 320 g/ha
Procedure, shortened: (§2)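 Plants were sown in alluvial soil held under 0.1–0.5 cm standing water and grown 14 days in a greenhouse at 25–30 °C. An emulsifiable formulation, water-diluted to the set dose, was then sprayed onto the foliage, and effects were scored three weeks later using previously defined criteria.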

chickweed [2] = experiment: Test Example 5: herbicidal effect by foliage application, plastic box (Table 20, symbol P); type: in vivo, common chickweed (Stellaria media); conditions: foliage application, 320 g/ha, evaluated three weeks after application
Procedure, shortened: (§3)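 Foliar spray test: emulsion formulation diluted in water to a set application rate, sprayed onto 14-day-old plants raised in diluvial soil at 25° C to 30° C under glass. Both herbicidal effect and crop effect rated visually three weeks later.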

green foxtail [3] = experiment: Test Example 4: herbicidal effect by soil treatment (Table 19, symbol G); type: in vivo, green foxtail (Setaria viridis); conditions: amount of applied herbicide 320 g/ha
Procedure, shortened: as §1

redroot pigweed [4] = experiment: Test Example 4: herbicidal effect by soil treatment (Table 19, symbol N); type: in vivo, redroot pigweed (Amaranthus retroflexus); conditions: amount of applied herbicide 320 g/ha
Procedure, shortened: as §1

lambsquarters [5] = experiment: Test Example 5: herbicidal effect by foliage application, plastic box (Table 20, symbol O); type: in vivo, lambsquarters (Chenopodium album); conditions: foliage application, 320 g/ha, evaluated three weeks after application
Procedure, shortened: as §3

velvetleaf [6] = experiment: Test Example 5: herbicidal effect by foliage application, plastic box (Table 20, symbol M); type: in vivo, velvetleaf (Abutilon theophrasti); conditions: foliage application, 320 g/ha, evaluated three weeks after application
Procedure, shortened: as §3

velvetleaf [7] = experiment: Test Example 4: herbicidal effect by soil treatment (Table 19, symbol M); type: in vivo, velvetleaf (Abutilon theophrasti); conditions: amount of applied herbicide 320 g/ha
Procedure, shortened: as §1

chickweed [8] = experiment: Test Example 4: herbicidal effect by soil treatment (Table 19, symbol P); type: in vivo, common chickweed (Stellaria media); conditions: amount of applied herbicide 320 g/ha
Procedure, shortened: as §1

barnyard grass [9] = experiment: Test Example 3: herbicidal effect by foliage application, Wagner pot (Table 18, symbol H); type: in vivo, barnyard grass (Echinochloa crus-galli); conditions: amount of applied herbicide 320 g/ha
Procedure, shortened: as §2

Chinese sprangletop = experiment: Test Example 3: herbicidal effect by foliage application, Wagner pot (Table 18, symbol D); type: in vivo, chinese sprangletop (Leptochloa chinensis); conditions: amount of applied herbicide 320 g/ha
Procedure, shortened: as §2

lambsquarters [10] = experiment: Test Example 4: herbicidal effect by soil treatment (Table 19, symbol O); type: in vivo, lambsquarters (Chenopodium album); conditions: amount of applied herbicide 320 g/ha
Procedure, shortened: as §1

Italian ryegrass [11] = experiment: Test Example 4: herbicidal effect by soil treatment (Table 19, symbol K); type: in vivo, Italian ryegrass (Lolium multiflorum); conditions: amount of applied herbicide 320 g/ha
Procedure, shortened: as §1

barnyard grass [12] = experiment: Test Example 5: herbicidal effect by foliage application, plastic box (Table 20, symbol H); type: in vivo, barnyard grass (Echinochloa crus-galli); conditions: foliage application, 320 g/ha, evaluated three weeks after application
Procedure, shortened: as §3

southern crabgrass [13] = experiment: Test Example 4: herbicidal effect by soil treatment (Table 19, symbol F); type: in vivo, southern crabgrass (Digitaria ciliaris); conditions: amount of applied herbicide 320 g/ha
Procedure, shortened: as §1

windgrass [14] = experiment: Test Example 5: herbicidal effect by foliage application, plastic box (Table 20, symbol L); type: in vivo, windgrass (Apera spica-venti); conditions: foliage application, 320 g/ha, evaluated three weeks after application
Procedure, shortened: as §3

redroot pigweed [15] = experiment: Test Example 5: herbicidal effect by foliage application, plastic box (Table 20, symbol N); type: in vivo, redroot pigweed (Amaranthus retroflexus); conditions: foliage application, 320 g/ha, evaluated three weeks after application
Procedure, shortened: as §3

green foxtail [16] = experiment: Test Example 5: herbicidal effect by foliage application, plastic box (Table 20, symbol G); type: in vivo, green foxtail (Setaria viridis); conditions: foliage application, 320 g/ha, evaluated three weeks after application
Procedure, shortened: as §3

persian speedwell [17] = experiment: Test Example 4: herbicidal effect by soil treatment (Table 19, symbol R); type: in vivo, Persian speedwell (Veronica persica); conditions: amount of applied herbicide 320 g/ha
Procedure, shortened: as §1

southern crabgrass [18] = experiment: Test Example 5: herbicidal effect by foliage application, plastic box (Table 20, symbol F); type: in vivo, southern crabgrass (Digitaria ciliaris); conditions: foliage application, 320 g/ha, evaluated three weeks after application
Procedure, shortened: as §3

Italian ryegrass [19] = experiment: Test Example 5: herbicidal effect by foliage application, plastic box (Table 20, symbol K); type: in vivo, Italian ryegrass (Lolium multiflorum); conditions: foliage application, 320 g/ha, evaluated three weeks after application
Procedure, shortened: as §3

blackgrass [20] = experiment: Test Example 5: herbicidal effect by foliage application, plastic box (Table 20, symbol J); type: in vivo, blackgrass (Alopecurus myosuroides); conditions: foliage application, 320 g/ha, evaluated three weeks after application
Procedure, shortened: as §3

persian speedwell [21] = experiment: Test Example 5: herbicidal effect by foliage application, plastic box (Table 20, symbol R); type: in vivo, Persian speedwell (Veronica persica); conditions: foliage application, 320 g/ha, evaluated three weeks after application
Procedure, shortened: as §3

wild oat [22] = experiment: Test Example 5: herbicidal effect by foliage application, plastic box (Table 20, symbol I); type: in vivo, wild oat (Avena fatua); conditions: foliage application, 320 g/ha, evaluated three weeks after application
Procedure, shortened: as §3

wild oat [23] = experiment: Test Example 4: herbicidal effect by soil treatment (Table 19, symbol I); type: in vivo, wild oat (Avena fatua); conditions: amount of applied herbicide 320 g/ha
Procedure, shortened: as §1

blackgrass [24] = experiment: Test Example 4: herbicidal effect by soil treatment (Table 19, symbol J); type: in vivo, blackgrass (Alopecurus myosuroides); conditions: amount of applied herbicide 320 g/ha
Procedure, shortened: as §1

windgrass [25] = experiment: Test Example 4: herbicidal effect by soil treatment (Table 19, symbol L); type: in vivo, windgrass (Apera spica-venti); conditions: amount of applied herbicide 320 g/ha
Procedure, shortened: as §1

SMILES	H: barnyard grass, herbicidal effect rating (barnyard grass [1])	herbicidal effect on E: rice flat sedge (rice flat sedge)	herbicidal effect on P: chickweed (chickweed [2])	G: green foxtail, herbicidal effect rating (green foxtail [3])	N: redroot pigweed, herbicidal effect rating (redroot pigweed [4])	herbicidal effect on O: lambsquarters (lambsquarters [5])	herbicidal effect on M: velvetleaf (velvetleaf [6])	M: velvetleaf, herbicidal effect rating (velvetleaf [7])	P: chickweed, herbicidal effect rating (chickweed [8])	herbicidal effect on H: barnyard grass (barnyard grass [9])	herbicidal effect on D: Chinese sprangletop (Chinese sprangletop)	O: lambsquarters, herbicidal effect rating (lambsquarters [10])	K: Italian ryegrass, herbicidal effect rating (Italian ryegrass [11])	herbicidal effect on H: barnyard grass (barnyard grass [12])	F: southern crabgrass, herbicidal effect rating (southern crabgrass [13])	herbicidal effect on L: windgrass (windgrass [14])	R: persian speedwell, herbicidal effect rating (persian speedwell [17])	I: wild oat, herbicidal effect rating (wild oat [23])	J: blackgrass, herbicidal effect rating (blackgrass [24])	L: windgrass, herbicidal effect rating (windgrass [25])	further results
Cc1ccc(-c2sc3ccc(C)cc3c2-c2c(O)c(C)nn(C)c2=O)cc1 [2-136]	0 (Herbicidal rate of 5% or less (almost no effect))	5 (Herbicidal rate of 90% or more (almost completely withered))	5 (Herbicidal rate of 90% or more (almost completely withered))	0 (Herbicidal rate of 5% or less (almost no effect))	5 (Herbicidal rate of 90% or more (almost completely withered))	4 (Herbicidal rate of 70% or more and less than 90%)	5 (Herbicidal rate of 90% or more (almost completely withered))	0 (Herbicidal rate of 5% or less (almost no effect))	4 (Herbicidal rate of 70% or more and less than 90%)	2 (Herbicidal rate of 20% or more and less than 40%)	0 (Herbicidal rate of 5% or less (almost no effect))	5 (Herbicidal rate of 90% or more (almost completely withered))	3 (Herbicidal rate of 40% or more and less than 70%)	0 (Herbicidal rate of 5% or less (almost no effect))	3 (Herbicidal rate of 40% or more and less than 70%)	0 (Herbicidal rate of 5% or less (almost no effect))	5 (Herbicidal rate of 90% or more (almost completely withered))	0 (Herbicidal rate of 5% or less (almost no effect))	0 (Herbicidal rate of 5% or less (almost no effect))	0 (Herbicidal rate of 5% or less (almost no effect))	herbicidal effect on N: redroot pigweed (redroot pigweed [15]): 5 (Herbicidal rate of 90% or more (almost completely withered)); herbicidal effect on G: green foxtail (green foxtail [16]): 0 (Herbicidal rate of 5% or less (almost no effect)); herbicidal effect on F: southern crabgrass (southern crabgrass [18]): 0 (Herbicidal rate of 5% or less (almost no effect)); herbicidal effect on K: Italian ryegrass (Italian ryegrass [19]): 5 (Herbicidal rate of 90% or more (almost completely withered)); herbicidal effect on J: blackgrass (blackgrass [20]): 0 (Herbicidal rate of 5% or less (almost no effect)); herbicidal effect on R: persian speedwell (persian speedwell [21]): 5 (Herbicidal rate of 90% or more (almost completely withered)); herbicidal effect on I: wild oat (wild oat [22]): 0 (Herbicidal rate of 5% or less (almost no effect))
CCCC(=O)Oc1c(C)nn(C)c(=O)c1-c1c(-c2ccc(C)cc2)sc2ccc(C)cc12 [2-137]	0 (Herbicidal rate of 5% or less (almost no effect))	5 (Herbicidal rate of 90% or more (almost completely withered))	5 (Herbicidal rate of 90% or more (almost completely withered))	0 (Herbicidal rate of 5% or less (almost no effect))	0 (Herbicidal rate of 5% or less (almost no effect))	2 (Herbicidal rate of 20% or more and less than 40%)	4 (Herbicidal rate of 70% or more and less than 90%)	0 (Herbicidal rate of 5% or less (almost no effect))	4 (Herbicidal rate of 70% or more and less than 90%)	1 (Herbicidal rate of 5% or more and less than 20%)	1 (Herbicidal rate of 5% or more and less than 20%)	0 (Herbicidal rate of 5% or less (almost no effect))	2 (Herbicidal rate of 20% or more and less than 40%)	0 (Herbicidal rate of 5% or less (almost no effect))	0 (Herbicidal rate of 5% or less (almost no effect))	0 (Herbicidal rate of 5% or less (almost no effect))	1 (Herbicidal rate of 5% or more and less than 20%)	0 (Herbicidal rate of 5% or less (almost no effect))	0 (Herbicidal rate of 5% or less (almost no effect))	0 (Herbicidal rate of 5% or less (almost no effect))	herbicidal effect on N: redroot pigweed (redroot pigweed [15]): 4 (Herbicidal rate of 70% or more and less than 90%); herbicidal effect on G: green foxtail (green foxtail [16]): 3 (Herbicidal rate of 40% or more and less than 70%); herbicidal effect on F: southern crabgrass (southern crabgrass [18]): 0 (Herbicidal rate of 5% or less (almost no effect)); herbicidal effect on K: Italian ryegrass (Italian ryegrass [19]): 4 (Herbicidal rate of 70% or more and less than 90%); herbicidal effect on J: blackgrass (blackgrass [20]): 0 (Herbicidal rate of 5% or less (almost no effect)); herbicidal effect on R: persian speedwell (persian speedwell [21]): 5 (Herbicidal rate of 90% or more (almost completely withered)); herbicidal effect on I: wild oat (wild oat [22]): 0 (Herbicidal rate of 5% or less (almost no effect))
Cc1ccc2sc(-c3ccc4c(c3)OCO4)c(-c3c(O)c(C)nn(C)c3=O)c2c1 [2-156]	0 (Herbicidal rate of 5% or less (almost no effect))	4 (Herbicidal rate of 70% or more and less than 90%)		0 (Herbicidal rate of 5% or less (almost no effect))	2 (Herbicidal rate of 20% or more and less than 40%)			0 (Herbicidal rate of 5% or less (almost no effect))	4 (Herbicidal rate of 70% or more and less than 90%)	3 (Herbicidal rate of 40% or more and less than 70%)	0 (Herbicidal rate of 5% or less (almost no effect))	3 (Herbicidal rate of 40% or more and less than 70%)	0 (Herbicidal rate of 5% or less (almost no effect))		0 (Herbicidal rate of 5% or less (almost no effect))		4 (Herbicidal rate of 70% or more and less than 90%)	0 (Herbicidal rate of 5% or less (almost no effect))	0 (Herbicidal rate of 5% or less (almost no effect))	0 (Herbicidal rate of 5% or less (almost no effect))	herbicidal effect on P: chickweed (criteria 0-5) (chickweed [2]): 5 (Herbicidal rate of 90% or more (almost completely withered)); herbicidal effect on O: lambsquarters (criteria 0-5) (lambsquarters [5]): 0 (Herbicidal rate of 5% or less (almost no effect)); herbicidal effect on M: velvetleaf (criteria 0-5) (velvetleaf [6]): 4 (Herbicidal rate of 70% or more and less than 90%); herbicidal effect on H: barnyard grass (criteria 0-5) (barnyard grass [12]): 0 (Herbicidal rate of 5% or less (almost no effect)); herbicidal effect on L: windgrass (criteria 0-5) (windgrass [14]): 0 (Herbicidal rate of 5% or less (almost no effect)); herbicidal effect on N: redroot pigweed (criteria 0-5) (redroot pigweed [15]): 3 (Herbicidal rate of 40% or more and less than 70%); herbicidal effect on G: green foxtail (criteria 0-5) (green foxtail [16]): 0 (Herbicidal rate of 5% or less (almost no effect)); herbicidal effect on F: southern crabgrass (criteria 0-5) (southern crabgrass [18]): 0 (Herbicidal rate of 5% or less (almost no effect)); herbicidal effect on K: Italian ryegrass (criteria 0-5) (Italian ryegrass [19]): 1 (Herbicidal rate of 5% or more and less than 20%); herbicidal effect on J: blackgrass (criteria 0-5) (blackgrass [20]): 0 (Herbicidal rate of 5% or less (almost no effect)); herbicidal effect on R: persian speedwell (criteria 0-5) (persian speedwell [21]): 5 (Herbicidal rate of 90% or more (almost completely withered)); herbicidal effect on I: wild oat (criteria 0-5) (wild oat [22]): 0 (Herbicidal rate of 5% or less (almost no effect))
